Measured values from patent US8044057B2, “Methods for suppressing an immune response or treating a proliferative disorder” (The United States of America as represented by the …, priority 2003, dated 2011).

How the values were obtained:
A549 cells = assay: A549 cell count after 24 hours with inhibitors; format: cell-based, human; settings: 100 μM LY303511, rapamycin 200 ng/ml, 200 nM wortmannin, 100 μM LY294002
Description: FIG. 2A is a bar graph showing LY303511 blocks cell proliferation, DNA synthesis, and cell cycle progression in A549 cells. A. A549 cells (80,000 cells per 35-mm dish) were grown for 1 day in medium with FBS before the addition of 0.1% DMSO, 100 μM LY303511, rapamycin, 200 ng/ml, 200 nM wortmannin, or 100 μM LY294002 for 24 hours. Cells were then incubated with trypsin, collected, and counted. Data are the means of cells/well×10^−4 ±SEM from duplicate assays in three experiments. *p<0.05 by Student's t-test. FIG. 2B is a line graph from results obtained when A549 cells (4,000 per well) in 96-well plates were grown in medium with FBS for 24 h before the addition of […] plus 0-200 μM LY303511 without or with rapamycin, 200 ng/ml, or with rapamycin alone (0-200 ng/ml). BrDU incorporation (absorbance at 490/465) was measured by in situ ELISA as per the manufacturer's instructions (BrDU detection kit, Roche). For each experiment, BrDU in cells incubated with inhibitors was expressed as a percentage of that in cells treated with 0.2% DMSO control (% control). Mean absorbance measures for controls=100% in each experiment were 0.9±0.3, 0.8±0.3, and 0.8±0.3. […]
Additionally, A549 cells (80,000 cells per well), were grown for 24 hours before addition of inhibitors (FIG. 2A). After 24 hours, trypan blue-stained cells were counted using a hemocytometer. […]

P70 S6 kinase = assay: Western blot of phospho-p70 S6 kinase T389 in PASM cells; format: cell-based, human
Description: FIGS. 4A-4D are bar graphs and digital images showing that LY303511 inhibits serum-stimulated phosphorylation of S6K and Akt (FIGS. 4A and 4B), as well as proliferation in PASM cells (FIGS. 4C and 4D). After incubation in serum-free medium for 24 hours, PASM cells were incubated without or with 100 μM LY303511, rapamycin, 200 ng/ml, or 200 nM wortmannin (FIG. 4A), or 0-100 μM LY303511 (FIG. 4B), for 1 hour before the addition of 10% FBS for 30 min and preparation of cell lysates. Equal amounts of protein (20 μg/gel) were separated by SDS-PAGE and transferred to nitrocellulose membranes before immunodetection of phospho-p70 S6 kinase T389 (pS6K) orphospho-Akt S473 (pAkt) by Western blot. Data are from one experiment representative of five.
HPASM cells were purchased from Clonetics and passaged according to the manufacturer's instructions. Cells were plated in 100 mm dishes, and allowed to grow to near confluence before serum starvation for 24 hours. […] Cells were homogenized and the indicated proteins were detected by Western blot.
Measurement of protein phosphorylation: A549 cells were incubated in serum-free medium without or with inhibitors for 1 hour, as indicated, before incubation for 30 minutes with a mixture of LPS, 100 μg/ml (Sigma; St. Louis, Mo.) and IFN-γ, 100 U/ml (Roche; Nutley, N.J.). […] Integrated band densities were quantified using Scion Image beta 3b software.

## O=c1cc(N2CCNCC2)oc2c(-c3ccccc3)cccc12 [LY303511, 2-(4-piperazinyl)-8-phenyl-4H-1-benzopyran-4-one]
A549 cells
  cell proliferation (cell number): significant inhibitory effect
P70 S6 kinase; Homo sapiens, pulmonary artery smooth muscle cells, densitometry, read-out: IC50 for inhibition of S6K phosphorylation
  IC50: ~1000 nM
P70 S6 kinase; PASM cells, 10% FBS for 30 minutes
  basal and serum-stimulated phosphorylation of P70 S6 kinase: inhibited basal and serum-stimulate phosphorylation of P70 S6 kinase
